By Ki is commonly meant the equilibrium dissociation constant of an inhibitor or competing ligand from its target.

“Also recorded” adds a separate entry of the source. Where only a bound is given, the exact number is not on record here.

For one assay, the system named is serine hydrolases. In words: Comparative and competitive gel ABPP selectivity in mouse brain membrane proteome (TAMRA-FP and MB064). Type of assay: biochemical. The following applies: 10 µM; TAMRA-FP 500 nM and MB064 250 nM. The method, then:
For gel based ABPP experiments mouse brain proteome (2.0 mg/mL, 20 µL) was preincubated for 30 min with vehicle (DMSO) or compound to be tested in 0.5 µL DMSO at rt. And subsequently treated with 500 nM (final concentration) TAMRA-FP (TAMRA-FP was bought at Thermo Fischer) for 15 minutes at rt. The reactions were quenched with 10 µL standard 3 x SDS page sample buffer. The samples were directly loaded and resolved on SDS page gel (10 % acrylamide). The gels were scanned with a ChemiDoc MP sytem (Biorad, Cy 3 settings, 605/50 filter) and analyzed using Image Lab 4.1.
To investigate the selectivity of compound 25 in the mouse brain proteome comparative and competitive ABPP was used with a broad-spectrum FP-based probe (TAMRA-FP) and the tailored DAGL-α ABP MB064. As a reference the widely used β-lactone-based DAGL-inhibitors THL and OMDM-188, two broad-spectrum covalent and irreversible serine hydrolase inhibitors, were firstly tested.

For another assay, the system named is CA1 pyramidal neurons. In words: Depolarization-induced suppression of inhibition (DSI) in hippocampal slices, whole-cell voltage clamp. Type of assay: cell-based. The following applies: 10 µM bath application, pre-incubated at least 30 min; mouse hippocampal slices. From the text:
Experimental evidence, which supports a role of DAGL-α in short-term synaptic plasticity, has been obtained through the use of genetically engineered mice that constitutively lack DAGL-α. DSI was absent in these DAGL-α knock-out mice, but not in their DAGL-β knock-out counter parts.
Horizontal slices (300 µm) of the hippocampus were obtained from male C57BL/6 mice (Harlan, the Netherlands) aged 14-19 days postnatal. Experiments were approved by the animal welfare committee of the University of Amsterdam. […] Inhibitory postsynaptic currents (IPSCs) were evoked with a glass stimulus electrode (filled with ACSF) positioned in the stratum radiatum, close to the recorded neuron. […]
Stock solutions (10 mM) of LEI105 were made in dimethylsulfoxide (DMSO), which was diluted to the final concentration (10 µM) in ACSF. […] Control experiments were performed on neurons recorded in slices pre-incubated with and in the continuous presence of 0.1 % DMSO.
For each CA1 neuron IPSCs were evoked with 5 sec intervals during a 2-min baseline period, prior to the stimulus evoking depolarization-induced suppression of inhibition (DSI). The maximum amplitude of each IPSC was determined and the mean value of the IPCS amplitudes over this period was calculated and used to normalize the evoked synaptic response. […]

The target of another assay is T1, recombinant human MAGL (Homo sapiens, UniProt Q99685).
T1 construct: expressed in transfected cells; membranes overexpressing MAGL
T1 sequence (Q99685 1-303): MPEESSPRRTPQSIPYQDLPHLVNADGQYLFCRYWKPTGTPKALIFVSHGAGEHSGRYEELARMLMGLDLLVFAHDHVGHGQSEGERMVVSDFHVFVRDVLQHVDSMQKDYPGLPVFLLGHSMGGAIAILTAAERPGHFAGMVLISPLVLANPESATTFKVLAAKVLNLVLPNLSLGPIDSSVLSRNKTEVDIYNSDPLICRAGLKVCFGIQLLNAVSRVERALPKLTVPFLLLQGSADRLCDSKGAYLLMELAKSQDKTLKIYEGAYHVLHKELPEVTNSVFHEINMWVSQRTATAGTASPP
The experiment in a line: MAGL assay (glycerol detection, 2-AG as substrate). Type of assay: biochemical. From the text:
This methodology allows for a more accurate quantification avoiding band overlap (as observed with gel-based assay) and allows screening over a broader range of specified serine hydrolases. Equal isotopic labeling and detection of light and medium peptides from proteins targeted by both ABPs (Figure 2G) were validated. Next, to investigate the selectivity of inventive compound 25 in this chemoproteomic assay was set out. […] In addition, the inventors tested compound 25 in biochemical assays using recombinant human MAGL and in a cannabinoid CB1 receptor radioligand displacement assay. A significant interaction ([…]) with these proteins of the endocannabinoid system could not be found. The CB1 displacement assays were performed as described below.
MAGL assay was performed as described below. Standard assays were performed under similar conditions as for the glycerol detection besed DAGL-α activity assay , but at a final protein concentration of 1.5 µg/mL (0.3 µg MAGL-overexpressing membranes per well) and with 2-arachidonoylglycerol (2-AG) as the substrate. 2-AG was directly added from a stock solution in acetonitrile and no Triton X-100 was added. Fluorescence was measured in 5 min intervals for 60 min. Final assay concentrations: 0.2 U/mL GK, GPO and HRP, 0.125 mM ATP, 10 µM Amplifu™Red, 25 µM 2-AG, 5% DMSO, 0.5% ACN in a total volume of 200 µL.

For the compound `Cc1ccc(-c2cnc3nc(C(=O)CCCCCc4ccccc4)oc3c2)cc1` [Compound 25, 1-(6-(p-Tolyl)oxazolo[4,5-b]pyridin-2-yl)-6-phenylhexan-1-one], the “labeling of other bands (selectivity)” value in the assay with serine hydrolases is reported as “excellent selectivity; also recorded: did not inhibit labeling of any other band”. The DSI entry with CA1 pyramidal neurons is recorded as “clear suppression of DSI; also recorded: DSI is reduced”. The Ki at recombinant human MAGL was above 10 µM.

These data come from patent publication EP3095787A1, “[…] ACTIVE COMPOUNDS AS DAG-LIPASE INHIBITORS” (Universiteit Leiden, priority 2015, dated 2016).
